The target of test [1] is human orexin-1 receptor (hOX1R) (Homo sapiens (Human), UniProt O43613). Put plainly: Measurement of orexin antagonistic activity (intracellular Ca2+ fluorescence, FDSS), hOX1R. The test is classed as cell-based. Conditions: CHO cells forcibly expressing hOX1R; ligand peptide (modified human orexin-A) 300 pM; maximum fluorescence intensity; read-out: IC50 Value OX1. On the procedure:
(§1) Chinese hamster ovary (CHO) cells forcibly expressing the hOX1R and hOX2R were seeded into a 96 well Black clear bottom plate (Nunc) at 20,000 cells per well, which were cultured in Ham's F-12 medium containing 0.1 mM MEM non-essential amino acids, 0.5 mg/ml G418, 10% fetal bovine serum (all by Invitrogen) for 16 hours under the conditions of 37° C., 5% CO2. After removing the medium, 100 μL of 0.5 μM Fluo-4AM ester (Dojin) in an assay buffer (25 mM HEPES (Dojin), Hank's balanced salt solution (Invitrogen), 0.1% bovine serum albumin, 2.5 mM probenecid, 200 μg/ml Amaranth (all by Sigma-Aldrich), pH 7.4) was added and the cells were incubated for 60 minutes at 37° C., 5% CO2. After removing the assay buffer containing fluo-3AM ester, the test compound was dissolved in dimethyl sulfoxide to be 10 mM and diluted with the assay buffer, 150 μL of which was added and incubated for 30 minutes.
(§2) The reaction was measured for the fluorescence intensity of each well every second for 3 minutes using Functional Drug Screening System (FDSS; Hamamatsu Photonics K.K.), and the antagonistic activity was determined using the maximum fluorescence intensity as the indicator of intracellular Ca2+ concentration.

Test [2] has as its target human orexin-2 receptor (hOX2R) (Homo sapiens (Human), UniProt O43614). The experiment in a line: Measurement of orexin antagonistic activity (intracellular Ca2+ fluorescence, FDSS), hOX2R. It counts as cell-based. Particulars: CHO cells forcibly expressing hOX2R; ligand peptide (modified human orexin-A) 3 nM; maximum fluorescence intensity; read-out: IC50 Value OX2. On the procedure: as §1, with “The antagonistic activities of the test compounds on human orexin-1 receptor (hOX1R) and orexin-2 receptor (hOX2R) were measured by modifying from the method described in literature (Toshikatsu Okumura et al., Biochemical and Biophysical Research Communications 280, 976-981, 2001). Chinese” for “Chinese”
as §2

human orexin-1 receptor (hOX1R), sequence (O43613 whole entry): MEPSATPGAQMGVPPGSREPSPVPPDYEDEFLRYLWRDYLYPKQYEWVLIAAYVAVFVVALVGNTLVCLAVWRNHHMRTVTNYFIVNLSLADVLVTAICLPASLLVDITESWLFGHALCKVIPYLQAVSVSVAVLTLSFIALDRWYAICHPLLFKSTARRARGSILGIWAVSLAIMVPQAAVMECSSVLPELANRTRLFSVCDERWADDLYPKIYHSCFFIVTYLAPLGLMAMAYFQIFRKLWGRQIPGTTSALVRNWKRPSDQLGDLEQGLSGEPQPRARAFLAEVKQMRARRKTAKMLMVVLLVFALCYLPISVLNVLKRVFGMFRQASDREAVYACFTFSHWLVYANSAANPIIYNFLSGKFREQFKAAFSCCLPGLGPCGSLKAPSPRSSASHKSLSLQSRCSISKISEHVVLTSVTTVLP
human orexin-2 receptor (hOX2R), sequence (O43614 whole entry): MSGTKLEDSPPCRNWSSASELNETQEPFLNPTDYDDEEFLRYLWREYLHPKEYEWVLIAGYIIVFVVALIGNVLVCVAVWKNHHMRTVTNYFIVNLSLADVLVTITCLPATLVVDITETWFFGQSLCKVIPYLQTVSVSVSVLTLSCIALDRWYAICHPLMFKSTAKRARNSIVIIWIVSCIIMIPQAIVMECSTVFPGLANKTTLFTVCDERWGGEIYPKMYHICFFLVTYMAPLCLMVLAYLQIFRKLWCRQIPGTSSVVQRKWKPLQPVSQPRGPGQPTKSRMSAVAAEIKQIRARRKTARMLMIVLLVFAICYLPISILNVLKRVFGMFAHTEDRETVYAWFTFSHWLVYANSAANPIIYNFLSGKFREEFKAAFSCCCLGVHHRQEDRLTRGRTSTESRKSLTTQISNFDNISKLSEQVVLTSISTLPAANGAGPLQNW

Usually IC50 stands for the concentration that inhibits the measured activity by half. `Cc1ccc(-n2nccn2)c(C(=O)N2CCOC2Cc2cnn(-c3ccc(F)cn3)c2)c1` (single isomer, unassigned; (-)) [Example 46, (−)-[2-{[1-(5-Fluoropyridin-2-yl)-1H-pyrazol-4-yl]methyl}-1,3-oxazolidin-3-yl][5-methyl-2-(2H-1,2,3-triazol-2-yl)phenyl]methanone]: the IC50 stood at 31.9 nM in test [1] and 38.7 nM in test [2].

As for `Cc1ccc(-n2nccn2)c(C(=O)N2[C@H](C)CO[C@H]2Cn2cc(-c3ccc(F)cn3)cn2)c1` [Example 8, [(2S,4R)-2-[[4-(5-fluoropyridin-2-yl)-1H-pyrazol-1-yl]-methyl]-4-methyl-1,3-oxazolidin-3-yl] [5-methyl-2-(2H-1,2,3-triazol-2-yl)phenyl] methanone], the results for the half-inhibitory concentration (IC50) in test [1] and in test [2] were 60.9 nM and 460 nM, respectively.

Take `Cc1ccc(-n2nccn2)c(C(=O)N2[C@H](Cn3cc(-c4ccc(F)cn4)cn3)OC[C@@H]2C)c1` [Example 10, (−)-[(2S,4S)-2-[[4-(5-fluoropyridin-2-yl)-1H-pyrazol-1-yl]methyl]-4-methyl-1,3-oxazolidin-3-yl] [5-methyl-2-(2H-1,2,3-triazol-2-yl)phenyl] methanone]: the IC50 in test [1] worked out at 201 nM; in test [2], 273 nM.

As to `Cc1ccc(-n2nccn2)c(C(=O)N2[C@H](Cn3cc(-c4ccc(F)cn4)cn3)OCC[C@@H]2C)c1` [Example 39, [(2S,4S)-2-{[4-(5-Fluoropyridin-2-yl)-1H-pyrazol-1-yl]methyl}-4-methyl-1,3-oxazinan-3-yl}[5-methyl-2-(2H-1,2,3-triazol-2-yl)phenyl]methanone], the IC50 amounted to 81.2 nM in test [1] and 46.6 nM in test [2].

For the origin of these results see patent US9266870B2 (TAISHO PHARMACEUTICAL CO., LTD., priority 2012, dated 2016).
